# Measured values from patent US9597416B2, “Fluorescent membrane intercalating probes and methods for their use” (PHANOS TECHNOLOGIES, INC., priority 2005, dated 2017).
# Assays:
# [1] = Absorbance/emission spectra in ethanol; type: physicochemical; conditions: for Abs Max / Flourescence Ex Max / Fluorescence Em Max: 0.25 μM solutions in ethanol; for Extinction Coefficient: ethanol, approximate, maximum absorbance divided by nominal concentration
# Experimental: Referring now to Tables 1 and 2, there are shown the absorbance and emission maxima of some example compounds of the present invention. Absorption and Fluorescence spectra were run using 0.25 μM solutions in ethanol on a Jasco, Inc. UV-530 UV/VIS spectrophotometer and FP 750 spectrofluorometer, respectively. Approximate extinction coefficients were estimated from the absorbance scans by dividing the maximum absorbance by the nominal concentration ([…]).
# U937 cells = assay: Probe effects on cell viability and cell growth (Maximum Tolerated Concentration); type: cell-based; conditions: for Maximum Tolerated Concentration (MTC): cultured U937 cells, 10^7 cells/ml, labeled 5 min in Diluent C, cultured 22-24 hours
# Experimental: U937 cells were stained at a concentration of 10^7 cells/ml with increasing concentrations of probe by rapidly admixing 2× cells suspended in Diluent C with 2× probe in Diluent C. After 5 minutes at room temperature, the staining was stopped by the addition of cell culture medium. Cells were then washed thoroughly and cultured under standard conditions for 22-24 hours. Cell numbers were compared to those in a control culture treated with diluent alone.
# Cells labeled with both dyes were also monitored daily for changes in mean fluorescence intensity (MFI), using a FACSAria flow cytometer with 488 nm excitation for PKH26 and 405 nm excitation for F305B. […] However, initial MFI's were high enough to detect at least 4 and possibly 5 or 6 cell doublings before the fluorescence intensity distribution of labeled cells began to overlap substantially with that of unstained cells. Color overlap of F305B into filter windows used for detection of 488 nm or 633 nm excited dyes was minimal. Since 405 nm excited dyes are less commonly available than 488 nm and 633 nm excited dyes of this nature were therefore deemed useful, despite their somewhat lesser signal:noise ratio, for providing increased flexibility in choice of spectral window to be used for monitoring membrane labeled cells and their proliferation.
# Cells labeled with both dyes were also monitored daily for changes in mean fluorescence intensity (MFI), using a FACSCalibur flow cytometer with 488 nm excitation for PKH26 and 633 nm excitation for F308B.
# Cells labeled either with PKH26 or with F319B were also monitored daily for changes in mean fluorescence intensity (MFI), using a FACSAria flow cytometer with 488 nm excitation for PKH26 and 785 nm excitation for F319B. […] Although the cells could only be followed for 4-5 doublings when labeled with PKH26, at least 6 doublings could be monitored using F319B before the fluorescence intensity distribution of labeled cells began to overlap substantially with that of unstained cells. Color overlap of F319B was minimal in filter windows used for detection of fluorescein, phycoerthyrin (PE), allophycocyanin (APC), and PE-Texas Red, PE-Cy5 or PerCP-Cy5.5 tandem conjugate dyes.
# [2] = Solubility in Diluent C vs ethanol control; type: physicochemical; conditions: 1:50 dilution of 1 mM stock, 30 min room temperature, centrifuged, % of absorbance of 100% ethanol control
# Experimental: Effects of the various combinations of asymmetrical and symmetrical side chains and methine bridges on the solubility of the compounds of the present invention were examined. Solubility in a commercially available probe diluent. Diluent C, was also tested. Triplicate 1:50 dilutions of stock 1 mM probe solutions were made in either ethanol or test diluent. After 30 minutes at room temperature solutions were centrifuged at 10,000×g for 10 minutes to remove any microagregates and 100 ul aliquots were transferred to 2.0 ml of ethanol for absorbance determinations. Based on the teachings of Leung et al. and on solubility specifications found on Sigma Certificates of Analysis for the commercial diluent (diluent supernatant absorbance at 30 minutes at least 60% of ethanol supernatant absorbance after 30 minutes), a preliminary specification at least 60% of the ethanol control was set as a surrogate for solubility sufficient to achieve cell labeling with S/N ratios greater than 100 and to minimize potential problems with brightness or reproducibility of labeling. Certain example compounds were soluble after 30 minutes in Diluent C.
# Diluent C is a commercially available isotonic salt-free vehicle (Sigma-Aldrich Chemical Company) that is commonly used.
# [3] = U937 cells stained at each dye's MTC, monitored daily for 4 days (approximately 4 doublings)
Solubility >60% of EtOH Control @ 30 min [2] [%],SMILES,Abs Max [1] [nm],Flourescence Ex Max [1] [nm],Fluorescence Em Max [1] [nm],Extinction Coefficient [1],cell growth compared with PKH26-stained cells (U937 cells; [3]),Maximum Tolerated Concentration (MTC) (U937 cells) [µmol/L],"cell growth compared with PKH26-stained cells (U937 cells; U937 cells, F319B 12.5 micromol/L vs PKH26 12 micromol/L, monitored daily for 6 days)"
–,CCCCCCCCCCCCCCCCCCCCCC[N+]1=C(/C=C/C=C/C=C2/N(CCCCCCCCCCCCCC)c3ccc([N+](=O)[O-])cc3C2(C)C)C(C)(C)c2ccccc21.[I-] [Compound F308B],649,493,671,"134,610 M^−1cm^−1",comparable growth,15,–
–,CCCCCCCCCCCCCCCCN1/C(=C\C=C\c2oc3ccc(C(C)(C)C)cc3[n+]2CCCCCCCCCCCCCCCC)Oc2ccc(C(C)(C)C)cc21.[I-] [Compound F304B],493,494,508,"160,000 M^−1cm^−1",–,–,–
–,CCCCCCCCCCCCCCCCCCCCCC[N+]1=C(/C=C/C=C/C=C/C=C2/N(CCCCCCCCCCCCCC)c3ccc([N+](=O)[O-])cc3C2(C)C)C(C)(C)c2ccccc21.[I-] [Compound F319B],743,–,776,"112,500 M^−1cm^−1",–,20,comparable growth
–,CCCCCCCCCCCCCCCCCCCCCC[n+]1c(/C=C2\Sc3ccccc3N2CCCCCCCCCCCCCC)sc2ccccc21.[I-] [Compound F305B],425,420,461,"81,200 M^−1cm^−1",comparable growth,20,–
–,CCCCCCCCCCCCCCCCCCN1/C(=C\C=C\c2oc3ccc(C(C)(C)C)cc3[n+]2CCCCCCCCCCCCCCCCCC)Oc2ccc(C(C)(C)C)cc21.[I-] [Compound F306B],492,493,508,"135,000 M^−1cm^−1",–,–,–
95,CCCCCCCCCCCCCCCCCCCCCC[N+]1=C(/C=C/C=C/C=C/C=C2/N(CCCCCCCCCCCCCC)c3ccc4ccccc4c3C2(C)C)C(C)(C)c2c1ccc1ccccc21.[I-] [Compound F277A],788,790,814,"205,400 M^−1cm^−1",–,–,–
